According to patent publication US20250171423A1, “PHARMACEUTICAL COMPOUNDS FOR THE TREATMENT OF COMPLEMENT MEDIATED DISORDERS” (Achillion Pharmaceuticals, Inc., priority 2020, published 2025):
Where two headings read alike, the source gives them in different places.

What was measured:
[1] = rcm bond, DCM
[2] = molecular target: T1, Human complement C1s enzyme (Homo sapiens, UniProt P09871); assay: Human C1s Enzyme Assay; assay type: biochemical; conditions: human C1s 1.16 nM, 5 min preincubation, substrate Z-L-Lys-SBzl 100 μM, A405; read-out: C1s Protease Activity
T1 construct: purified from human serum, Complement Technology, Inc; purchased Complement Technology, Inc; host or cells: human serum
T1 sequence (P09871 438-688 limits assumed): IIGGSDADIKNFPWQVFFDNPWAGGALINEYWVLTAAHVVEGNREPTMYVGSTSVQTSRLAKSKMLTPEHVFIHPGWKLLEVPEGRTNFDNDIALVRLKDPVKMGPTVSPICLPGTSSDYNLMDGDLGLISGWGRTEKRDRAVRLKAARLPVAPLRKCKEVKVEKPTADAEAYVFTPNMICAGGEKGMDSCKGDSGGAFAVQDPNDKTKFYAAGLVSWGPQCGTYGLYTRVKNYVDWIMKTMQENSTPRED
T1 sequence (P09871 16-437 partner limits assumed): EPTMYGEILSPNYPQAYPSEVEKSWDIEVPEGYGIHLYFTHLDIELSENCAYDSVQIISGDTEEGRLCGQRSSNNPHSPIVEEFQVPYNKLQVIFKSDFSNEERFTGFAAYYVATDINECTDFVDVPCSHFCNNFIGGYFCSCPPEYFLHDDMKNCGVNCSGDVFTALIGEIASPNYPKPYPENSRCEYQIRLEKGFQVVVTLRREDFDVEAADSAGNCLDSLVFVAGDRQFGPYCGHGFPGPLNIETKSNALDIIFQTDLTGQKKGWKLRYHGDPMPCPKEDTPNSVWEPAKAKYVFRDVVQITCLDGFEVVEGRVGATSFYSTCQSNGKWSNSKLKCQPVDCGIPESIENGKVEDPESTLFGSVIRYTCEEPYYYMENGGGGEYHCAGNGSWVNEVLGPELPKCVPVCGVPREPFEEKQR
Summary of the method: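 C1s purified from human serum (1.16 nM final) was preincubated with compound for 5 min at room temperature in 50 mM Tris, 1 M NaCl, pH 7.5. Z-L-Lys-SBzl and DTNB were then added at 100 μM each, and A405 was followed for 30 min. IC50 came from nonlinear regression of reaction rates.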

| IC50 [2] [nM] | Structure (SMILES) | also measured |
| --- | --- | --- |
| < 100 | CO[C@@H]1C[C@@H](C(=O)NCc2cc(C(=N)N)cs2)N(C(=O)CNC(=O)CCCOc2ccccc2)C1 [Compound 27, (2S,4R)-N-((4-carbamimidoylthiophen-2-yl)methyl)-4-methoxy-1-((4-phenoxy-butanoyl)glycyl)pyrrolidine-2-carboxamide] |  |
| < 100 | C[C@@H](NC(=O)[C@@H]1C[C@@H](S(C)(=O)=O)CN1C(=O)CNC(=O)CCCOc1ccc(F)cc1)c1cc(C(=N)N)cs1 [Compound 107, (2S,4R)-N-((R)-1-(4-carbamimidoylthiophen-2-yl)ethyl)-1-((4-(4-fluorophenoxy)-butanoyl)glycyl)-4-(methylsulfonyl)pyrrolidine-2-carboxamide] |  |
| < 100 | CCCC(COc1ccccc1)CC(=O)NCC(=O)N1CC2(C[C@H]1C(=O)NCc1cc(C(=N)N)cs1)OCCO2 (stereo partly drawn) [Compound 90, (8S)-N-((4-carbamimidoylthiophen-2-yl)methyl)-7-((3-(phenoxymethyl)hexanoyl)glycyl)-1,4-dioxa-7-azaspiro[4.4]nonane-8-carboxamide] |  |
| < 100 | C[C@@]12C[C@@H]1N(C(=O)CNC(=O)CCCCc1ccccc1)[C@H](C(=O)NCc1cc(C(=N)N)cs1)C2 [Compound 81, (1S,3S,5S)-N-((4-carbamimidoylthiophen-2-yl)methyl)-5-methyl-2-((5-phenyl-pentanoyl)glycyl)-2-azabicyclo[3.1.0]hexane-3-carboxamide] |  |

The remaining lines, values behind:

| Structure (SMILES) | IC50 [2] [nM] | also measured |
| --- | --- | --- |
| O=C1NCC(=O)N2[C@H]3C[C@@]3(COCCCC=CCCCCC/C=C\c3cc1ccc3Oc1ccc(F)cc1)C[C@H]2C(=O)OCc1ccccc1 |  | ring closure, yield of all isomers ([1]; from C=CCCCCC/C=C\c1cc(C(=O)NCC(=O)N2[C@H]3C[C@@]3(COCCCC=C)C[C@H]2C(=O)OCc2ccccc2)ccc1Oc1ccc(F)cc1, Grubbs 1st generation catalyst, 1.76 mM, 25.0 °C, 48.0 h): 7.8% |
| CCOC(=O)[C@@H]1C[C@@]23COCCC/C=C/CCCCCCCCC(=O)N[C@@H](CCOc4ccccc4)C(=O)NCC(=O)N1[C@H]2C3 |  | ring closure, yield of all isomers ([1]; from C=CCCCCCCCCC(=O)N[C@@H](CCOc1ccccc1)C(=O)NCC(=O)N1[C@H]2C[C@@]2(COCCCC=C)C[C@H]1C(=O)OCC, Grubbs 1st catalyst, 15.3 mM, 28.0 °C, 16.0 h): 38.8% |
| O=C1CCCCCCCC/C=C/CCCOC[C@@]23C[C@@H]2N(C(=O)CNC(=O)[C@H](CCOc2ccccc2)N1)[C@H](C(=O)OCc1ccccc1)C3 |  | ring closure, yield of all isomers ([1]; from C=CCCCCCCCCC(=O)N[C@@H](CCOc1ccccc1)C(=O)NCC(=O)N1[C@H]2C[C@@]2(COCCCC=C)C[C@H]1C(=O)OCc1ccccc1, Grubbs 1st catalyst, 14.0 mM, 28.0 °C, 16.0 h): 43.4% |
| COC[C@@]12C[C@@H]1N(C(=O)CNC(=O)c1ccc(Oc3ccccc3)cc1)[C@H](C(=O)NCc1cc(C(=N)N)cs1)C2 [Compound 20, (1S,3S,5R)-N-((4-carbamimidoylthiophen-2-yl)methyl)-5-(methoxymethyl)-2-((4-phenoxybenzoyl)glycyl)-2-azabicyclo[3.1.0]hexane-3-carboxamide] | < 100 |  |
